Results as given in US11400107B2, “Cancer treatments” (NuCana plc, priority 2016, dated 2022).
“Also recorded” adds a separate entry of the source.

Test system: Lin^−/CD34^+/CD38^−/CD123^+ cancer stem cells in KG1a cells
Test: Immunophenotypic quantification of the leukaemic stem cell compartment in KG1a cells
Type: cell-based, human
Settings: KG1a cells
Experimental: The respective abilities of NUC-1031 and gemcitabine to target CSCs were investigated in the AML cell line KG1a.
KG1a cells were cultured for 72 hours in the presence of a wide range of concentrations of each nucleoside analogue and their respective ProTides. Cells were then harvested and labelled with a cocktail of anti-lineage antibodies (PE-cy7), anti-CD34 (FITC), anti-CD38 (PE) and anti-CD123 (PERCP cy5). The sub-population expressing a leukaemic stem cell (LSC) phenotype were subsequently identified and were expressed as a percentage of all viable cells left in the culture. The percentages of stem cells remaining were then plotted on a dose-response graph and the proportion of cancer stem cells was compared across the various concentrations of ProTides and their respective parent compounds, in order to determine if they preferentially target cancer stem cells.
The data obtained in these experiments were evaluated using one way ANOVA. All data was confirmed as Gaussian or a Gaussian approximation using the omnibus K2 test. LD50 values were calculated from the non-linear regression and line of best-fit analysis of the sigmoidal dose-response curves. All statistical analyses were performed using Graphpad Prism 6.0 software (Graphpad Software Inc., San Diego, Calif.).

Compound: C[C@H](NP(=O)(OC[C@H]1O[C@@H](n2ccc(N)nc2=O)C(F)(F)[C@@H]1O)Oc1ccccc1)C(=O)OCc1ccccc1 (stereo partly drawn) [NUC-1031, 2′-deoxy-2′,2′-difluoro-D-cytidine-5′-O-[phenyl (benzoxy-L-alaninyl)] phosphate]
- selectivity against cancer stem cells compared to the parent compound: preferential targeting of CSCs; also recorded: statistically significantly greater
